Data as given in PubChem BioAssay AID2060507 (Molecular Pharmacology Branch, DTP, NCI, 2025).

Tested on: 519858-162-T-J1-PDC complex spheroid viability
Test: Anticancer human tumor 519858-162-T-J1-PDC patient-derived colon adenocarcinoma cell line growth inhibition [GQUAD]
Conditions: for IC50: curve of first compound; for viability, T/C: stronger effect = lower value
Excerpt: DNA G-quadruplex Stabilizer Agents in Combinations in Complex Spheroids
A high-throughput screen of multi-cell type tumor spheroids was designed to identify active combinations of DNA G-quadruplex stabilizer agents and targeted small molecules. Complex spheroids include a stromal component modeled by human endothelial cells (HUVEC) and fibroblasts modeled by human mesenchymal stem cells (MSCs). The concentration ranges selected for each drug and investigational agent were based upon clinically achievable concentrations if the clinical Cmax of the agent was known.
Compounds. The drugs and investigational agents: pidnarulex (CX-5461; NSC782164), APTO-253 (NSC789042), BRACO-19 (NSC847499), peposertib (NSC802822), ceralasertib (NSC780249), elimusertib (NSC800525), camonsertib (NSC841442), AZD-1390 (NSC803789), olaparib (NSC753686), talazoparib (NSC767125), ART-558 (NSC835418), sotorasib (NSC818433), MRTX-1133 (NSC836407), SN-38 (NSC673596), topotecan (NSC609699), etoposide (NSC141540), doxorubicin (NSC123127), gemcitabine (NSC613327), 5-fluorouracil (NSC19893), paclitaxel (NSC125973), vemurafenib (NSC761431), panobinostat (NSC761190), R-306465 (JNJ-16241199; NSC773264), adavosertib (NSC754352), TP-3654 (NSC805149), carboplatin (NSC241240), KSQ-4279 (NSC840948), and staurosporine (NSC755774) were obtained from the National Cancer Institute (NCI) Developmental Therapeutics Program Chemical Repository (34). The FDA-approved anticancer drug set is available from the NCI Developmental Therapeutics Program. […] The stock solutions were prepared in dimethyl sulfoxide (DMSO, Sigma-Aldrich, St. Louis, MO, cat. D2650) at 800-fold the tested concentration and stored at -70 degrees C prior to their use. All drugs and investigational agents were tested over a range starting from a high concentration at or near the clinical Cmax and decreasing in half-log increments. If the clinical Cmax for an agent had not been determined, the highest concentration tested was 10 microM.
2.3 Cell Culture. All cells were maintained in an incubator at 37 degrees C and 5% CO2 with 95% humidity. The PDC lines were cultured according to standard operating procedures established by the NCI PDMR. All PDCs were thawed and cultured in Matrigel-coated flasks prepared with a working solution of 1X Ham's F-12 nutrient mix, without supplementation (Invitrogen, cat. 11765054), 100 U/mL penicillin-streptomycin (Invitrogen, cat. 15140122), and 2.5% Matrigel (Corning Inc., cat. 354248) for the first three passages. The 857933-349-R-J2-PDC line was cultured in 6C/Colon 1B media, which includes advanced DMEM/F-12 (Thermo Fisher Scientific, cat. 12634028), 10 mM HEPES (Thermo Fisher Scientific, cat. 15630080), 1X GlutaMAX supplement (Thermo Fisher Scientific, cat. 35050061), 0.1 mg/mL primocin (InvivoGen, cat. ant-pm-2), 10% defined fetal bovine serum, heat inactivated (HyClone Laboratories Inc., cat. SH30070.03HI), 50% L-WRN conditioned media (ATCC, cat. CRL-3276), 1.25 mM N-Acetyl-L-cysteine (Sigma-Aldrich, cat. A9165), 10 mM nicotinamide (Sigma-Aldrich, cat. N0636), 1X B-27 supplement (Thermo Fisher Scientific, cat. 17504044), 1X N-2 supplement (Thermo Fisher Scientific, cat. 17502048), 10 microM Y-27632 dihydrochloride (Tocris Bioscience, cat. 1254), and 50 ng/mL human EGF recombinant protein (Thermo Fisher Scientific, cat. PHG0311). The 485176-168-R4-J1-PDC line was cultured in Panc media, which includes all 6C/Colon 1B media components plus 100 ng/mL human FGF-10 (Thermo Fisher Scientific, cat. 100-26), 500 nM SB-431542 (Selleckchem, cat. S1067), and gastrin (Tocris, cat. 3006).
[…]

[1] = second compound 0.0316 µM, first compound 0.0316 µM
[2] = second compound 0.0316 µM, first compound 0.316 µM
[3] = second compound 0.1 µM, first compound 0.0316 µM
[4] = second compound 0.1 µM, first compound 0.316 µM
[5] = second compound 0.316 µM, first compound 0.0316 µM
[6] = second compound 0.316 µM, first compound 0.316 µM
[7] = second compound 1 µM, first compound 0.0316 µM
[8] = second compound 1 µM, first compound 0.316 µM
[9] = second compound 3.16 µM, first compound 0.0316 µM
[10] = second compound 3.16 µM, first compound 0.316 µM
[11] = second compound 10 µM, first compound 0.0316 µM
[12] = second compound 10 µM, first compound 0.316 µM
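Note: spheroids exposed to compounds for 7 days.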
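Throughout, for viability, T/C: 100% = DMSO vehicle control viability.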

SMILES: CCc1c2c(nc3ccc(O)cc13)-c1cc3c(c(=O)n1C2)COC(=O)[C@]3(O)CC + Cc1[nH]c2ccc(F)cc2c1-c1nc2c3cccnc3c3ncccc3c2[nH]1
- IC50 (second compound 0.0316 µM): > 0.316 µM
- IC50 (second compound 0.1 µM): > 0.316 µM
- IC50 (second compound 0.316 µM): > 0.316 µM
- IC50 (second compound 1 µM): > 0.316 µM
- IC50 (second compound 3.16 µM): > 0.316 µM
- IC50 (second compound 10 µM): < 0.000999 µM
- viability, T/C (second compound 0.0316 µM, first compound 0.000999 µM): 124%
- viability, T/C (second compound 0.0316 µM, first compound 0.00316 µM): 86%
- viability, T/C (second compound 0.0316 µM, first compound 0.00999 µM): 70.5%
- viability, T/C [1]: 86.6%
- viability, T/C (second compound 0.0316 µM, first compound 0.0999 µM): 56.6%
- viability, T/C [2]: 62.8%
- viability, T/C (second compound 0.1 µM, first compound 0.000999 µM): 85%
- viability, T/C (second compound 0.1 µM, first compound 0.00316 µM): 96.9%
- viability, T/C (second compound 0.1 µM, first compound 0.00999 µM): 63.7%
- viability, T/C [3]: 63.2%
- viability, T/C (second compound 0.1 µM, first compound 0.0999 µM): 84.2%
- viability, T/C [4]: 52.9%
- viability, T/C (second compound 0.316 µM, first compound 0.000999 µM): 99.9%
- viability, T/C (second compound 0.316 µM, first compound 0.00316 µM): 105%
- viability, T/C (second compound 0.316 µM, first compound 0.00999 µM): 60.8%
- viability, T/C [5]: 53.9%
- viability, T/C (second compound 0.316 µM, first compound 0.0999 µM): 63.4%
- viability, T/C [6]: 59.4%
- viability, T/C (second compound 1 µM, first compound 0.000999 µM): 89.8%
- viability, T/C (second compound 1 µM, first compound 0.00316 µM): 75.2%
- viability, T/C (second compound 1 µM, first compound 0.00999 µM): 78.2%
- viability, T/C [7]: 83.6%
- viability, T/C (second compound 1 µM, first compound 0.0999 µM): 54.6%
- viability, T/C [8]: 62.8%
- viability, T/C (second compound 3.16 µM, first compound 0.000999 µM): 68.5%
- viability, T/C (second compound 3.16 µM, first compound 0.00316 µM): 53.3%
- viability, T/C (second compound 3.16 µM, first compound 0.00999 µM): 47.8%
- viability, T/C [9]: 61.1%
- viability, T/C (second compound 3.16 µM, first compound 0.0999 µM): 80%
- viability, T/C [10]: 49.9%
- viability, T/C (second compound 10 µM, first compound 0.000999 µM): 39.9%
- viability, T/C (second compound 10 µM, first compound 0.00316 µM): 50.2%
- viability, T/C (second compound 10 µM, first compound 0.00999 µM): 69.7%
- viability, T/C [11]: 56.6%
- viability, T/C (second compound 10 µM, first compound 0.0999 µM): 74.5%
- viability, T/C [12]: 76.2%

SMILES: COc1cccc2c1C(=O)c1c(O)c3c(c(O)c1C2=O)CC(O)(C(=O)CO)CC3OC1CC(N)C(O)C(C)O1 (centres undefined) + Cc1[nH]c2ccc(F)cc2c1-c1nc2c3cccnc3c3ncccc3c2[nH]1
- IC50 (second compound 0.0316 µM): > 10 µM
- IC50 (second compound 0.1 µM): > 10 µM
- IC50 (second compound 0.316 µM): > 10 µM
- IC50 (second compound 1 µM): > 10 µM
- IC50 (second compound 3.16 µM): > 10 µM
- IC50 (second compound 10 µM): > 10 µM
- viability, T/C [1]: 117%
- viability, T/C (second compound 0.0316 µM, first compound 0.1 µM): 126%
- viability, T/C [2]: 95.3%
- viability, T/C (second compound 0.0316 µM, first compound 1 µM): 81.9%
- viability, T/C (second compound 0.0316 µM, first compound 3.16 µM): 82.1%
- viability, T/C (second compound 0.0316 µM, first compound 10 µM): 75.3%
- viability, T/C [3]: 104%
- viability, T/C (second compound 0.1 µM, first compound 0.1 µM): 122%
- viability, T/C [4]: 98.5%
- viability, T/C (second compound 0.1 µM, first compound 1 µM): 80.1%
- viability, T/C (second compound 0.1 µM, first compound 3.16 µM): 61.3%
- viability, T/C (second compound 0.1 µM, first compound 10 µM): 62.1%
- viability, T/C [5]: 82.3%
- viability, T/C (second compound 0.316 µM, first compound 0.1 µM): 95.4%
- viability, T/C [6]: 121%
- viability, T/C (second compound 0.316 µM, first compound 1 µM): 78.6%
- viability, T/C (second compound 0.316 µM, first compound 3.16 µM): 72.9%
- viability, T/C (second compound 0.316 µM, first compound 10 µM): 50.6%
- viability, T/C [7]: 109%
- viability, T/C (second compound 1 µM, first compound 0.1 µM): 98.6%
- viability, T/C [8]: 109%
- viability, T/C (second compound 1 µM, first compound 1 µM): 70.2%
- viability, T/C (second compound 1 µM, first compound 3.16 µM): 69.9%
- viability, T/C (second compound 1 µM, first compound 10 µM): 51.9%
- viability, T/C [9]: 96.3%
- viability, T/C (second compound 3.16 µM, first compound 0.1 µM): 72.7%
- viability, T/C [10]: 78.3%
- viability, T/C (second compound 3.16 µM, first compound 1 µM): 68.2%
- viability, T/C (second compound 3.16 µM, first compound 3.16 µM): 62.4%
- viability, T/C (second compound 3.16 µM, first compound 10 µM): 72.9%
- viability, T/C [11]: 47%
- viability, T/C (second compound 10 µM, first compound 0.1 µM): 79.9%
- viability, T/C [12]: 60.7%
- viability, T/C (second compound 10 µM, first compound 1 µM): 51.4%
- viability, T/C (second compound 10 µM, first compound 3.16 µM): 44%
- viability, T/C (second compound 10 µM, first compound 10 µM): 78.1%
